These results are taken from PubChem BioAssay (NCI).

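Cells were grown in 96-well plates and exposed to each compound for 48 hours at five concentrations; endpoints were interpolated linearly between bracketing concentrations, or set to the highest concentration if not reached. GI50 = concentration required for 50% inhibition of growth. TGI denotes the concentration required for complete inhibition of growth.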

Test systems include LOX IMVI melanoma; HCC-2998 colon; HOP-62 NSCLC; OVCAR-8 ovarian; K-562 leukemia; OVCAR-3 ovarian; SK-MEL-5 melanoma; RPMI-8226 leukemia; EKVX NSCLC; NCI-H226 lung.
What all share (assay): DTP human tumour cell line panel, 48 h

A word on the TGI: it is the concentration at which net growth stops. A higher TGI goes with lower sensitivity of the cells. In the case of `Cc1ccc(NC(=O)/C(CC(=O)c2c[n+](=O)c3ccccc3n2O)=N\NC(=O)C[n+]2ccccc2)cc1`, the TGI in the experiment on LOX IMVI melanoma, in the experiment with HCC-2998 colon, in the experiment with HOP-62 NSCLC, with OVCAR-8 ovarian, in the experiment with K-562 leukemia and in the experiment on OVCAR-3 ovarian was > 100 µM in each case. The concentration for total growth inhibition (TGI) in the experiment on SK-MEL-5 melanoma, with RPMI-8226 leukemia, in the experiment with EKVX NSCLC and in the experiment on NCI-H226 lung was > 100 µM in each case.
Take `C(=C\c1csnn1)/c1cccnc1`: the TGI with LOX IMVI melanoma, with HCC-2998 colon, in the experiment on HOP-62 NSCLC, in the experiment with OVCAR-8 ovarian, in the experiment with K-562 leukemia and in the experiment on OVCAR-3 ovarian was > 100 µM in each case. Moreover, the concentration for total growth inhibition (TGI) in the experiment with RPMI-8226 leukemia, with EKVX NSCLC and in the experiment with NCI-H226 lung was > 100 µM each time.
In the case of `CC(c1ccc(Br)cc1)C(C(=O)O)C(=O)O` (stereo not given), the total growth inhibition concentration (TGI) in the experiment on LOX IMVI melanoma, in the experiment on HCC-2998 colon, with HOP-62 NSCLC, with OVCAR-8 ovarian, in the experiment on K-562 leukemia and in the experiment with OVCAR-3 ovarian was > 100 µM throughout. The TGI in the experiment with SK-MEL-5 melanoma, in the experiment with RPMI-8226 leukemia, in the experiment on EKVX NSCLC and in the experiment with NCI-H226 lung was > 100 µM each time.
Consider `CCOC(=O)/N=C(\N)SCc1ccccc1`, for which the concentration for total growth inhibition (TGI) in the experiment on LOX IMVI melanoma, with HCC-2998 colon, in the experiment on HOP-62 NSCLC, in the experiment with OVCAR-8 ovarian, in the experiment on K-562 leukemia and in the experiment with SK-MEL-5 melanoma was > 100 µM throughout. Moreover, the TGI in the experiment on RPMI-8226 leukemia, in the experiment with EKVX NSCLC and with NCI-H226 lung was > 100 µM each time.
For the compound `CC1=CC(C)(C)N=C2SC(c3ccc(Cl)cc3)=NN12`, the TGI is > 100 µM in the experiment on LOX IMVI melanoma; > 100 µM in the experiment on HCC-2998 colon; > 100 µM with HOP-62 NSCLC; > 100 µM in the experiment with K-562 leukemia; 92.1 µM in the experiment with OVCAR-3 ovarian; 33.9 µM in the experiment with SK-MEL-5 melanoma. The concentration for total growth inhibition (TGI) in the experiment on RPMI-8226 leukemia was 49.8 µM; with EKVX NSCLC, > 100 µM; in the experiment on NCI-H226 lung, 55.4 µM.
The term GI50 denotes the concentration that inhibits growth by half. On to `CCC(Sc1nnc2c3ccccc3n(CC)c2n1)C(=O)Nc1ccccc1OC` (stereo not given), for which the GI50 is > 100 µM with LOX IMVI melanoma; > 100 µM with HCC-2998 colon; 3.99 µM with HOP-62 NSCLC; > 100 µM with OVCAR-8 ovarian; > 100 µM in the experiment on K-562 leukemia; 8.49 µM with OVCAR-3 ovarian. Moreover, the GI50 in the experiment with SK-MEL-5 melanoma was 60.8 µM; in the experiment with RPMI-8226 leukemia it was 4.35 µM; with EKVX NSCLC, 1.08 µM; with NCI-H226 lung, 53.6 µM. For the same compound, the TGI with LOX IMVI melanoma is > 100 µM; in the experiment with HCC-2998 colon, > 100 µM; with HOP-62 NSCLC it was > 71.9 µM; in the experiment with OVCAR-8 ovarian, > 100 µM; in the experiment on K-562 leukemia it was > 100 µM; in the experiment on OVCAR-3 ovarian, > 79.4 µM. Also, the concentration for total growth inhibition (TGI) in the experiment on SK-MEL-5 melanoma is > 100 µM; in the experiment with RPMI-8226 leukemia it was > 72.8 µM; in the experiment on EKVX NSCLC, > 30.1 µM; in the experiment with NCI-H226 lung, > 100 µM.
On to `CC(=O)O[C@@H]1CO[C@H]2O[C@H]3[C@@H](C(C=O)=C[C@H](O)[C@@H]4C5=C(C(C)C)CC[C@]5(C)CC[C@@]34C)[C@@]2(O)C1=O`, for which the total growth inhibition concentration (TGI) came out at 0.687 µM with LOX IMVI melanoma; 1.27 µM in the experiment with HCC-2998 colon; 1.82 µM with HOP-62 NSCLC; 0.52 µM in the experiment with OVCAR-8 ovarian; 0.368 µM in the experiment with K-562 leukemia; 0.278 µM in the experiment on OVCAR-3 ovarian. In addition, the concentration for total growth inhibition (TGI) in the experiment with SK-MEL-5 melanoma was 0.577 µM; with RPMI-8226 leukemia it was 1.6 µM; with EKVX NSCLC it was 1.28 µM; in the experiment with NCI-H226 lung it was 1.02 µM.
Regarding `COc1cc(CSc2nc3ccc(C)cc3c(=O)n2Cc2ccccc2)cc(OC)c1OC`, the GI50 was 4.66 µM with LOX IMVI melanoma; 3.96 µM in the experiment on HCC-2998 colon; 3.21 µM in the experiment on HOP-62 NSCLC; 4.41 µM with OVCAR-8 ovarian; 0.624 µM in the experiment on K-562 leukemia; 0.956 µM in the experiment on OVCAR-3 ovarian. Further, the GI50 is 1.45 µM with SK-MEL-5 melanoma, 2.96 µM with RPMI-8226 leukemia and 11.5 µM in the experiment with NCI-H226 lung. For the same compound, the total growth inhibition concentration (TGI) in the experiment on LOX IMVI melanoma was > 100 µM; in the experiment with HCC-2998 colon it was > 100 µM; with HOP-62 NSCLC, 21.4 µM; in the experiment on OVCAR-8 ovarian, > 100 µM; in the experiment with K-562 leukemia it was > 100 µM; in the experiment on OVCAR-3 ovarian it was 7.02 µM. For the same compound, the values for the TGI with SK-MEL-5 melanoma, with RPMI-8226 leukemia and in the experiment with NCI-H226 lung were 12.8 µM, > 100 µM and 96.1 µM, respectively.
With `CC(=O)OC12c3ccccc3C1CCCCCC21OCCCO1` (stereo not given), the TGI in the experiment on LOX IMVI melanoma, with HCC-2998 colon, in the experiment with HOP-62 NSCLC, in the experiment with OVCAR-8 ovarian, in the experiment on K-562 leukemia and in the experiment with OVCAR-3 ovarian was > 100 µM throughout. Further, the TGI in the experiment with SK-MEL-5 melanoma, with RPMI-8226 leukemia and with NCI-H226 lung was > 100 µM throughout.
For the compound `CCCCC(=O)N/N=C/c1cc(I)cc(I)c1O`, the GI50 with LOX IMVI melanoma was 2.62 µM; with HCC-2998 colon it was 11.1 µM; in the experiment with HOP-62 NSCLC it was 3.67 µM; in the experiment on OVCAR-8 ovarian, 2.26 µM; in the experiment on K-562 leukemia, 2.99 µM; with OVCAR-3 ovarian, 2.9 µM. The GI50 is 3.22 µM in the experiment on SK-MEL-5 melanoma, 3.95 µM with RPMI-8226 leukemia and 5.93 µM in the experiment with NCI-H226 lung. The TGI in the experiment with LOX IMVI melanoma was 13.4 µM; in the experiment on HCC-2998 colon it was > 100 µM; in the experiment with HOP-62 NSCLC, 19.8 µM; in the experiment with OVCAR-8 ovarian it was 13.3 µM; with K-562 leukemia it was 15.9 µM; in the experiment on OVCAR-3 ovarian, 16.9 µM. Further, the values for the TGI in the experiment on SK-MEL-5 melanoma, in the experiment with RPMI-8226 leukemia and in the experiment with NCI-H226 lung were 15.3 µM, 30.1 µM and 36.7 µM, respectively.
With `COC(=O)c1ccccc1NC(=O)/C(=N\NC(C)(C)C)C(C#N)c1nc(-c2ccc([N+](=O)[O-])cc2)cs1` (stereo not given), the TGI with LOX IMVI melanoma, in the experiment on HCC-2998 colon, with OVCAR-8 ovarian, in the experiment with K-562 leukemia, in the experiment on OVCAR-3 ovarian and with SK-MEL-5 melanoma was > 100 µM throughout. For the same compound, the TGI with RPMI-8226 leukemia, in the experiment with EKVX NSCLC and with NCI-H226 lung was > 100 µM each time.
On to `Cn1c(CCC#N)nc2ccc(Br)cc2c1=O`, for which the TGI in the experiment with LOX IMVI melanoma, with HCC-2998 colon, with HOP-62 NSCLC, in the experiment on OVCAR-8 ovarian, in the experiment on K-562 leukemia and in the experiment on SK-MEL-5 melanoma was > 100 µM throughout. For the same compound, the total growth inhibition concentration (TGI) with RPMI-8226 leukemia, in the experiment with EKVX NSCLC and with NCI-H226 lung was > 100 µM throughout.
